Data published in patent US20250325695A1, “NANOPARTICLE FOR USE IN A PROPHYLAXIS OR IN A TREATMENT OF A CALCIFICATION OF BRUCHS MEMBRANE AND DRUSEN” (Universität Münster, priority 2024, published 2025).

Experiments:
[1] = system: Jurkat cells; experiment: WST-1 cytotoxicity assay, Jurkat; type: cell-based, human; conditions: 24 h incubation, highest concentration of range 0.5 to 250 μg/ml
Method: (§1) hCMEC/D3 cells were cultivated using RPMI 1640 supplemented with 1% (v/v) non-essential amino acids, 1% ([…] (200 mM), 1% (v/v) gentamicin, 1% (v/v) sodium pyruvate (100 mM), 550 nM hydrocortisone, and 20% (v/v) FBS. Jurkat cells were cultivated using RPMI 1640 supplemented with 1% (v/v) of a mixture of penicillin (100 U/ml) and streptomycin (100 μg/ml), 1% ([…] (200 mM), 1% (v/v) gentamicin, and 10% (v/v) FBS. Both cell lines were stored in T75 cell culture flasks in an incubator at a temperature of 37° C. and 100% humidity at 5% CO2 atmosphere. The cells were split twice a week at a ratio of approximately 1:3. After thawing, all experiments were conducted within a maximum of 20 passages. To evaluate the cytotoxicity of the NP formulations a WST-1 assay (Roche Diagnostics, Mannheim, Germany) was conducted on Jurkat and hCMEC/D3 cell lines. Human macrophages and HUVECs were tested applying a XTT assay (Sigma-Aldrich Chemie GmbH, Munich, Germany). After seeding Jurkat and hCMEC/D3 cells in a 96 well plate at a density of 2×10^4 cells/well (hCMEC/D3 cells suspended in 100 μL, Jurkat cells suspended in 50 μL), they were cultured for 48 h with serum containing medium. […] After 30 min, the absorbance was measured again. […] The blank measurement was subtracted and the absorbances were correlated to the controls. […]

[2] = system: hCMEC/D3 cells; experiment: WST-1 cytotoxicity assay, hCMEC/D3; type: cell-based, human; conditions: 24 h incubation, highest concentration of range 0.5 to 250 μg/ml, related to pure medium
Method: as §1

Structure (SMILES): O=C(O)CN(CCN(CC(=O)O)CC(=O)O)CCN(CC(=O)O)CC(=O)O [DTPA, diethylenetriaminepentaacetic acid]
- cell viability, Jurkat cells [1]: 73.0±6.6%
- cell viability, hCMEC/D3 cells [2]: 78.4±6.9%
